Source: patent US20230044257A1, “COMPOSITIONS AND METHODS FOR ENHANCED UPTAKE OF ACTIVE INGREDIENTS FOR ANIMAL HEALTH AND NUTRITION” (AgroSpheres, Inc., priority 2019, published 2023)

Key:
[1] = Encapsulation (loading) efficacy of essential oils / active ingredients into AgriCell; type: physicochemical
Method: After AgriCells are purified, the concentrated AgriCell paste or dry lyophilized powder is loaded with EOs. If dry, the AgriCells are first homogenized into a finer powder through mechanical homogenization. A stock solution from each EO is prepared in ethanol at 100 mg/mL-200 mg/mL. Lyophilized AgriCells would then be suspended in a solution with the EO solution at a ratio of 1 g of dry AgriCells to 10 mL of EO solution. Once resuspended, the ethanol is allowed to evaporate overnight, leaving behind EO encapsulated AgriCells in the process. After this overnight period, encapsulated AgriCells are removed from the beaker, and the EO-encapsulated AgriCell powder is mechanically homogenized. This encapsulated product is ready for resuspension in its appropriate medium. Loading efficacy was measured and/or calculated as percentage of EO loaded into AgriCell after extraction with ethanol 100% v/v and quantification by UV-Vis spectroscopy. Eugenol and thymol were quantified at 280 nm, whereas pyrethrum was quantified at 230 nm against its respective calibration standard curve. Also, Genistein was quantified at […], whereas eugenol was quantified at 280 nm against its respective calibration standard curve.

[2] = test system: Pseudomonas aeruginosa ATCC 15442; experiment: Zone of inhibition test (Kirby-Bauer); type: cell-based; conditions: ATCC15442, read-out: growth inhibition compared to positive control (Vancomycin 30 μg/mL)
Method: (§1) In this example, the zone of inhibition test, also called a Kirby-Bauer Test, was conducted to measure antibiotic resistance of eugenol encapsulated into AgriCell. Approximately 1×10^8 cells from a selected bacterial strain (Escherichia coli ATCC 25922 and Pseudomonas aeruginosa ATCC 15442) were spread over an agar plate using a sterile swab, then incubated in the presence of the antimicrobial agent (adsorbed over a paper disc). If the bacterial strain is susceptible to the antimicrobial agent, then a zone of inhibition appears on the agar plate, whereas if the selected bacterial strain is resistant to the antimicrobial agent, then no zone is evident.

[3] = test system: Escherichia coli ATCC 25922; experiment: Zone of inhibition test (Kirby-Bauer); type: cell-based; conditions: ATCC25922, read-out: growth inhibition compared to positive control (Vancomycin 30 μg/mL)
Method: as §1

[4] = Auto-oxidative degradation of essential oils under UV and Vis light; type: physicochemical; conditions: after 7 days under UV and Vis light
Method: (§2) AgriCell-encapsulated EOs (200 mg/mL of EO loaded with 200 mg/mL of AgriCell) were diluted 1:10 in deionized water (total volume 1000 μL, 14 replicates for each EO) and the solutions were left under UV radiation for a total period of 7 days. One replicate of each EO per treatment was collected daily and tested for EO content by UV-Vis spectroscopy as described in Example 2. Results were reported as concentration of EO as function of time for each stability condition.

[5] = Thermal degradation of essential oils at 40° C.; type: physicochemical; conditions: day 7 at 40° C., diluted 1:10 in deionized water
Method: as §2, with “at 40° C.” for “under UV radiation”, “content.” for “content by UV-Vis spectroscopy as described in Example 2.”

E. coli strain ATCC 8739 = experiment: Bacterial agglutination (transmittance at 450 nm); type: cell-based; conditions: 300 μg/mL
Method: E. coli strain ATCC 8739 (which causes disease outside of the intestinal tract and its highly virulent in chickens) from a frozen stock was cultured in tryptose broth (10 g of tryptose, 2.5 g of sodium chloride, 0.5 g of dextrose, and 0.0025 g of thiamin hydrochloride in 500 mL of deionized water) at 37° C. for 48 hours. After incubation, 1 mL of E. coli cultures were taken from the surface of the broth and used to inoculate new broths that were incubated at 37° C. for 24 hours. After 24 hours, the bacterial cultures were centrifuged at 1800 g for 10 minutes to obtain bacterial pellets. The pellets were washed twice with 1x PBS+Ca^2+/Mg^2+ and then resuspended in 1 mL of PBS+Ca^2+/Mg^2+ to obtain the bacterial stock solutions. The optical density of the suspension was measure at 600 nm and bacterial cell densities (CFU/mL) were calculated using previously established bacterial growth curves for each strain of bacteria. […] The final concentration of each cuvette was 300 μg/mL of genistein equivalent and 5.0×10^8 CFU/mL in a total volume of 1 mL. The cuvettes were mixed via trituration and placed on an UV-Visible spectrophotometer equipped with an eight-position cuvette holder. The percent transmittance of light at 450 nm was measured every 1 min for 240 min. […] After 240 min, the area under the curve was calculated from the generated transmittance calibration curves.

H. pylori = conditions: 2 mg/L; cited from earlier work
[6] = HEL release from AgriCell in PBS; type: physicochemical; conditions: PBS pH 7.3, 37° C.
Method: Samples were incubated at 37° C. under mild shaking. After 15, 30, 45, 60, 90, 120, 180, and 240 minutes, the tubes were given a spin-off and samples of 250 μL of the supernatant were taken. These samples were replaced by PBS (pH 7.3). The non-encapsulated HEL in PBS was determined with the Lowry protein assay and AgriCell-encapsulated HEL was determined by arithmetic differential calculation.

[7] = test system: 3A9 T-cell hybridomas cocultured with mouse peritoneal macrophages; experiment: IL-2 expression in 3A9 T-cell hybridomas cocultured with macrophages (ELISA); type: cell-based; conditions: 10 mg/mL
Method: Mouse peritoneal macrophages were resuspended in media and plated in 24-well cell-culture plates at a concentration of 1×10^8 cells/well. After 3 hours, the macrophages were attached and washed with DMEM media until cells other than macrophages were removed. Supplemented media (DMEM, 10% FBS, 2 mM of L-alanyl-L-glutamine, 100 U/mL of media penicillin and 100 U/mL of media streptomycin) was added and the macrophages were incubated overnight at 37° C. and 5% CO2. The 3A9 T-cell hybridomas were maintained in DMEM supplemented with 10% FBS, 50 μg of gentamycin/mL media, 2 mM of L-alanyl-L-glutamine, 10 mM of HEPES buffer, 55 μM of 2-mercaptoethanol, and 1× non-essential amino acids. For experiments, media was removed from the macrophages and rinsed once with PBS. […] The media was removed, and cells washed once with PBS. The T-cell hybridomas (concentration equals 2× the number of macrophages) in 3A9 media (without phenol red) were added to the macrophages and incubated for 24 hours. Media was removed, placed in microfuge tubes, centrifuged for 4 minutes at 15,000×g, and IL-2 was measured by an ELISA kit (555148, BD Biosciences). Data were expressed as pg of IL-2/mL media.

E. coli = conditions: cited from earlier work
[8] = AI 100 mg/mL encapsulated into AgriCell (FIG. 4B)
[9] = EO 200 mg/mL encapsulated into AgriCell (FIG. 4A)

Compound	encapsulation efficacy [1, 8]	encapsulation efficacy [1, 9]	autoxidatively degraded (degradation rates) [4]	existence (remained/not damaged) [4]	percentages of degradation [5]	other results
C=CCc1ccc(O)c(OC)c1 [eugenol]	91.1%	95.5%	82.7%	17.3%	17.3%	inhibition at 200 µg/mL [2]: < 60%; inhibition at 200 µg/mL [3]: < 80%
O=c1c(-c2ccc(O)cc2)coc2cc(O)cc(O)c12 [genistein]	83.6%	–	–	–	–	lag phase of agglutination curve (E. coli strain ATCC 8739): about 25 minutes
CC(C)=CCC/C(C)=C/CO [geraniol]	–	–	–	–	–	growth of H. pylori in vitro (H. pylori): inhibited the growth
Cc1ccc(C(C)C)c(O)c1 [thymol]	–	91.8%	55.8%	44.2%	20.9%	–
HEL: hen egg-white lysozyme, model protein antigen, 14.7 kDa	–	–	–	–	–	HEL released, initial burst stage ([6]; 15 minutes): 89.2%; HEL released ([6]; 240 minutes): 100.1%; preincubation time to maximum IL-2 expression [7]: > 10 h
CC(C)=CCCC(C)=CC=O [citral]	–	–	–	–	–	concentration in growth media that reduced the concentration of E. coli (E. coli): more than 0.01%; concentration with bactericidal effect (E. coli): 0.08%
